Key:
Test in all cases: Test 1A glasshouse assay, post-emergence herbicidal activity
Format in all cases: in vivo
Lolium perenne (LOLPE) = conditions: Lolium perenne, 312 h, application rate 250 g/ha, 13 days after application, visual (100%=total damage; 0%=no damage), read-out: Post-emergence Herbicidal Activity (% Phytotoxicity) LOLPE
Protocol: (§1) Seeds of a variety of test species were sown in standard soil in pots. After cultivation for one day (pre-emergence) or after 8 days cultivation (post-emergence) under controlled conditions in a glasshouse (at 24/16° C., day/night; 14 hours light; 65% humidity), the plants were sprayed with an aqueous spray solution derived from the formulation of the technical active ingredient in acetone/water (50:50) solution containing 0.5% Tween 20 (polyoxyethelyene sorbitan monolaurate, CAS RN 9005-64-5). The test plants were then grown under controlled conditions in a glasshouse (at 24/16° C., day/night; 14 hours light; 65% humidity) and watered twice daily. 13 days after application of the test herbicide, for pre- and post-emergence, the test was evaluated visually for percentage phytotoxicity to the plant (where 100%=total damage to plant; 0%=no damage to plant).
(§2) Lolium perenne (LOLPE), Alopecurus myosuroides (ALOMY), Echinochloa crus-galli (ECHCG), and Avena fatua (AVEFA); these are all grassy monocotyledonous weeds.

[1] = system: Alopecurus myosuroides (ALOMY); conditions: Alopecurus myosuroides, 312 h, application rate 250 g/ha, 13 days after application, visual (100%=total damage; 0%=no damage), read-out: Post-emergence Herbicidal Activity (% Phytotoxicity) ALOMY
Protocol: as §1, §2

[2] = system: Echinochloa crus-galli (ECHCG); conditions: Echinochloa crus-galli, 312 h, application rate 250 g/ha, 13 days after application, visual (100%=total damage; 0%=no damage), read-out: Post-emergence Herbicidal Activity (% Phytotoxicity) ECHCG
Protocol: as §1, §2

Avena fatua (AVEFA) = conditions: Avena fatua, 312 h, application rate 250 g/ha, 13 days after application, visual (100%=total damage; 0%=no damage), read-out: Post-emergence Herbicidal Activity (% Phytotoxicity) AVEFA
Protocol: as §1, §2

## COc1cc(Cl)nc(C(=O)NCCC2CC(=O)C(c3c(C)cc(C)cc3C)C2=O)c1 (centres unmarked) [Compound A65]
Lolium perenne (LOLPE)
  pest or weed control at 250 g/ha: 80%
[1]
  pest or weed control at 250 g/ha: 100%
[2]
  pest or weed control at 250 g/ha: 80%
Avena fatua (AVEFA)
  pest or weed control at 250 g/ha: 70%

## Cc1cc(C)c(C2C(=O)CC(CCNC(=O)c3cccc(N)n3)C2=O)c(C)c1 (centres unmarked) [Compound A66]
Lolium perenne (LOLPE)
  pest or weed control at 250 g/ha: 60%
[1]
  pest or weed control at 250 g/ha: 80%
[2]
  pest or weed control at 250 g/ha: 70%
Avena fatua (AVEFA)
  pest or weed control at 250 g/ha: 40%

## COc1cc(OC)nc(C(=O)NCCC2CC(=O)C(c3c(C)cc(C)cc3C)C2=O)n1 (centres unmarked) [Compound A69]
Lolium perenne (LOLPE)
  pest or weed control at 250 g/ha: 60%
[1]
  pest or weed control at 250 g/ha: 50%
[2]
  pest or weed control at 250 g/ha: 30%
Avena fatua (AVEFA)
  pest or weed control at 250 g/ha: 70%

## Cc1cc(C)c(C2C(=O)CC(CCNC(=O)c3ncc(C)nc3N)C2=O)c(C)c1 (centres unmarked) [Compound A70]
Lolium perenne (LOLPE)
  pest or weed control at 250 g/ha: 100%
[1]
  pest or weed control at 250 g/ha: 100%
[2]
  pest or weed control at 250 g/ha: 90%
Avena fatua (AVEFA)
  pest or weed control at 250 g/ha: 90%

## Cc1cc(C)c(C2C(=O)CC(CCNC(=O)c3nc(C)oc3C(F)(F)F)C2=O)c(C)c1 (centres unmarked) [Compound A71]
Lolium perenne (LOLPE)
  pest or weed control at 250 g/ha: 100%
[1]
  pest or weed control at 250 g/ha: 100%
[2]
  pest or weed control at 250 g/ha: 80%
Avena fatua (AVEFA)
  pest or weed control at 250 g/ha: 90%

## Cc1cc(C)c(C2C(=O)CC(CCNC(=O)c3cc(C)nn3C)C2=O)c(C)c1 (centres unmarked) [Compound A72]
Lolium perenne (LOLPE)
  pest or weed control at 250 g/ha: 90%
[1]
  pest or weed control at 250 g/ha: 90%
[2]
  pest or weed control at 250 g/ha: 70%
Avena fatua (AVEFA)
  pest or weed control at 250 g/ha: 90%

## Cc1cc(C)c(C2C(=O)CC(CCNC(=O)c3csc(C)n3)C2=O)c(C)c1 (centres unmarked) [Compound A73]
Lolium perenne (LOLPE)
  pest or weed control at 250 g/ha: 80%
[1]
  pest or weed control at 250 g/ha: 90%
[2]
  pest or weed control at 250 g/ha: 90%
Avena fatua (AVEFA)
  pest or weed control at 250 g/ha: 90%

## Cc1cc(C)c(C2C(=O)CC(CCNC(=O)c3n[nH]c4ccccc34)C2=O)c(C)c1 (centres unmarked) [Compound A74]
Lolium perenne (LOLPE)
  pest or weed control at 250 g/ha: 80%
[1]
  pest or weed control at 250 g/ha: 90%
[2]
  pest or weed control at 250 g/ha: 70%
Avena fatua (AVEFA)
  pest or weed control at 250 g/ha: 30%

## Cc1cc(C)c(C2C(=O)CC(CCNC(=O)c3cc(C)n(C)n3)C2=O)c(C)c1 (centres unmarked) [Compound A75]
Lolium perenne (LOLPE)
  pest or weed control at 250 g/ha: 90%
[1]
  pest or weed control at 250 g/ha: 90%
[2]
  pest or weed control at 250 g/ha: 90%
Avena fatua (AVEFA)
  pest or weed control at 250 g/ha: 90%

## Cc1cc(C)c(C2C(=O)CC(CCNC(=O)c3c(C)nc4ccccn34)C2=O)c(C)c1 (centres unmarked) [Compound A76]
Lolium perenne (LOLPE)
  pest or weed control at 250 g/ha: 60%
[1]
  pest or weed control at 250 g/ha: 70%
[2]
  pest or weed control at 250 g/ha: 80%
Avena fatua (AVEFA)
  pest or weed control at 250 g/ha: 90%

## Cc1cc(C)c(C2C(=O)CC(CCNC(=O)c3nn(C)cc3C(F)(F)F)C2=O)c(C)c1 (centres unmarked) [Compound A77]
Lolium perenne (LOLPE)
  pest or weed control at 250 g/ha: 90%
[1]
  pest or weed control at 250 g/ha: 70%
[2]
  pest or weed control at 250 g/ha: 90%
Avena fatua (AVEFA)
  pest or weed control at 250 g/ha: 90%

## Cc1cc(C)c(C2C(=O)CC(CCNC(=O)c3nc(C)ncc3Br)C2=O)c(C)c1 (centres unmarked) [Compound A78]
Lolium perenne (LOLPE)
  pest or weed control at 250 g/ha: 60%
[1]
  pest or weed control at 250 g/ha: 80%
[2]
  pest or weed control at 250 g/ha: 80%
Avena fatua (AVEFA)
  pest or weed control at 250 g/ha: 80%

## Cc1cc(C)c(C2C(=O)CC(CCNC(=O)c3sc(C)nc3C)C2=O)c(C)c1 (centres unmarked) [Compound A79]
Lolium perenne (LOLPE)
  pest or weed control at 250 g/ha: 70%
[1]
  pest or weed control at 250 g/ha: 80%
[2]
  pest or weed control at 250 g/ha: 70%
Avena fatua (AVEFA)
  pest or weed control at 250 g/ha: 80%

## CCc1cc(Br)cc(C)c1C1C(=O)CC(CCNC(=O)c2ccccn2)C1=O (centres unmarked) [Compound A83]
Lolium perenne (LOLPE)
  pest or weed control at 250 g/ha: 100%
[1]
  pest or weed control at 250 g/ha: 100%
[2]
  pest or weed control at 250 g/ha: 100%
Avena fatua (AVEFA)
  pest or weed control at 250 g/ha: 100%

## CC#Cc1cc(C)c(C2C(=O)CC(CCNC(=O)c3ccccn3)C2=O)c(CC)c1 (centres unmarked) [Compound A84, N-[2-[3-(2-ethyl-6-methyl-4-prop-1-ynyl-phenyl)-2,4-dioxo-cyclopentyl]ethyl]pyridine-2-carboxamide]
Lolium perenne (LOLPE)
  pest or weed control at 250 g/ha: 100%
[1]
  pest or weed control at 250 g/ha: 100%
[2]
  pest or weed control at 250 g/ha: 100%
Avena fatua (AVEFA)
  pest or weed control at 250 g/ha: 100%

## C#Cc1cc(C)c(C2C(=O)CC(CCNC(=O)c3ccccn3)C2=O)c(CC)c1 (centres unmarked) [Compound A85, N-[2-[3-(2-ethyl-4-ethynyl-6-methyl-phenyl)-2,4-dioxo-cyclopentyl]ethyl]pyridine-2-carboxamide]
Lolium perenne (LOLPE)
  pest or weed control at 250 g/ha: 100%
[1]
  pest or weed control at 250 g/ha: 90%
[2]
  pest or weed control at 250 g/ha: 100%
Avena fatua (AVEFA)
  pest or weed control at 250 g/ha: 100%

## CCc1cc(-c2ccc(F)cc2)cc(C)c1C1C(=O)CC(CCNC(=O)c2ccccn2)C1=O (centres unmarked) [Compound A86, N-[2-[3-[2-ethyl-4-(4-fluorophenyl)-6-methyl-phenyl]-2,4-dioxo-cyclopentyl]ethyl]pyridine-2-carboxamide]
Lolium perenne (LOLPE)
  pest or weed control at 250 g/ha: 100%
[1]
  pest or weed control at 250 g/ha: 100%
[2]
  pest or weed control at 250 g/ha: 100%
Avena fatua (AVEFA)
  pest or weed control at 250 g/ha: 100%

Reference: US9808003B2, “Herbicidally active 2-(substituted-phenyl)-cyclopentane-1,3-dione compounds and derivatives thereof” (Syngenta Limited, priority 2013, dated 2017)
